The experiment has as its target T1, human CD39 (Homo sapiens, UniProt P49961).
T1 sequence (P49961 1-510): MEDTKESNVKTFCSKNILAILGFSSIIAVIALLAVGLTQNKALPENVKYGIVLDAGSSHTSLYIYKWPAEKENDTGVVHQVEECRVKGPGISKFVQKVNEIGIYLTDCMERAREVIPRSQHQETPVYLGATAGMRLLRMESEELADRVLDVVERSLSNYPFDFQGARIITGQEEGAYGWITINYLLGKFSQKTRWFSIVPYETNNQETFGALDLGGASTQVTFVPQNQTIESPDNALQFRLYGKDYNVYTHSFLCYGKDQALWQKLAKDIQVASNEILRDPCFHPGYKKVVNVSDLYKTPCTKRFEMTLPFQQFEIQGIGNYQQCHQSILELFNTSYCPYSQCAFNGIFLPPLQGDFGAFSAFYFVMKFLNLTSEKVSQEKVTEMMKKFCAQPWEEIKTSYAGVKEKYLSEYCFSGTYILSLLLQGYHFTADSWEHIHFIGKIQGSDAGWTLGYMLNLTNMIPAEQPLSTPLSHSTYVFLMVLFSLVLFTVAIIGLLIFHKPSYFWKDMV
Put plainly: Fluorescence capillary electrophoresis assay for CD39. The format is biochemical. The arrangement: Human umbilical cord membrane preparations (250 ng) natively expressing high amounts of CD39; from tissue; host or cells: human umbilical cord membranes. The note with it: for Ki: human umbilical cord membrane preparation, n = 3, Cheng-Prusoff; for CD39 inhibition (in words) / IC50 (in words): human CD39; for inhibition at 10 µM: read-out: % inhibition at 10 µM. On the procedure: They were minced and homogenized with a polytron in 95 mM NaCl, 0.1 mM phenylmethylsulfonyl fluoride (PMSF), and 45 mM Tris solution, pH 7.6. […] The pellets were resuspended in 5 mM Tris buffer solution, pH 8.0 and 10% glycerol. All purification steps were performed at 4°C. The preparations were kept at −80°C.
For inhibition screening, three independent experiments were performed. […] The reaction buffer contained 10 mM HEPES, 2 mM CaCl2, 1 mM MgCl2, pH 7.4. The samples were incubated at 37°C for 4 min, and the enzymatic reaction was terminated by heating at 90°C for 5 min. The solution was then diluted 1:20 with reaction buffer to perform separation of nucleotides by capillary electrophoresis (CE) followed by laser-induced fluorescence (LIF) detection. […] Three independent experiments were performed, and curves were calculated by GraphPad Prism 8 software (GraphPad software, San Diego, CA, USA).
Analysis was carried out using a P/ACE MDQ capillary electrophoresis system (Beckman Instruments, Fullerton, CA, USA). The separation was performed in a polyacrylamide-coated capillary [30 cm (10 cm effective length) × 50 µm (id), × 360 µm (od)]. Before each run, the capillary was rinsed with the background electrolyte [50 mM phosphate buffer (pH 6.5)] for 1 min at 30 psi. Samples were electrokinetically injected by applying a voltage of -6 kV for 30 s at the capillary outlet, and the fluorescent nucleotide derivatives were separated by voltage application of -15 kV. […] Data collection and peak area analysis were performed by the P/ACE MDQ software 32 KARAT obtained from Beckman Coulter (Fullerton, CA, USA).

[1] abbreviates: fluorescent substrate PSB-017621A 0.5 µM, read-out: Ki ± SEM.
Where [2] appears, read: ratio of Ki values, fluorescence CE assay.
[3] abbreviates: screening at 10 µM, fluorescent substrate PSB-017621A 0.5 µM.

“Also recorded” adds a separate entry of the source. Where two headings read alike, the source gives them in different places.

The text below walks through data of PMC7508162 (Frontiers in Pharmacology, 2020).

A word on the Ki: it is the dissociation constant of the complex between target and ligand, obtained from inhibition or displacement. As a reminder, the inhibition is the percentage by which the read-out fell short of the control.

Turning to `CN(C)c1ncnc2c1ncn2[C@@H]1O[C@H](COP(=O)(O)OP(=O)(O)C(Br)(Br)P(=O)(O)O)[C@@H](O)[C@H]1O` [Compound 24, (Dibromo((((((2R,3S,4R,5R)-5-(6-(dimethylamino)-9H-purin-9-yl)-3,4-dihydroxytetrahydro-furan-2-yl)methoxy)-(hydroxy)phosphoryl)oxy)(hydroxy)phosphoryl)methyl)-phosphonic Acid], the inhibition constant Ki under setting [1] is 40.1 ± 7 µM. For the same compound, the “fold decrease in CD39 potency compared to I” value (“fold decrease in CD39 potency” below) under setting [2] came to 41 fold.
Consider `CCN(C)c1ncnc2c1ncn2[C@@H]1O[C@H](COP(=O)(O)OP(=O)(O)C(Br)(Br)P(=O)(O)O)[C@@H](O)[C@H]1O` [Compound 25, (Dibromo((((((2R,3S,4R,5R)-5-(6-(ethyl(methyl)amino)-9H-purin-9-yl)-3,4-dihydroxytetra-hydrofuran-2-yl)methoxy)-(hydroxy)phosphoryl)oxy)(hydroxy)phosphoryl)methyl)-phosphonic Acid], for which the Ki under setting [1] was found to be 6.48 ± 2.6 µM. The “fold decrease in CD39 potency” value under setting [2] was “about 7 fold”.
For `CCCN(C)c1ncnc2c1ncn2[C@@H]1O[C@H](COP(=O)(O)OP(=O)(O)C(Br)(Br)P(=O)(O)O)[C@@H](O)[C@H]1O` [Compound 26, (Dibromo((((((2R,3S,4R,5R)-3,4-dihydroxy-5-(6-(methyl-(propyl)amino)-9H-purin-9-yl)tetra-hydrofuran-2-yl)-methoxy)(hydroxy)phosphoryl)oxy)(hydroxy)phosphoryl)-methyl)phosphonic Acid], the inhibitory constant (Ki) under setting [1] is 4.04 ± 2.12 µM.
As for `CCCN(CCC)c1ncnc2c1ncn2[C@@H]1O[C@H](COP(=O)(O)OP(=O)(O)C(Br)(Br)P(=O)(O)O)[C@@H](O)[C@H]1O` [Compound 27, (Dibromo((((((2R,3S,4R,5R)-5-(6-(dipropylamino)-9H-purin-9-yl)-3,4-dihydroxytetrahydro-furan-2-yl)methoxy)-(hydroxy)phosphoryl)oxy)(hydroxy)phosphoryl)methyl)-phosphonic Acid], the Ki under setting [1] turned out to be 2.68 ± 1.11 µM.
On the same count and under the same terms, under `CCCN(CC)c1ncnc2c1ncn2[C@@H]1O[C@H](COP(=O)(O)OP(=O)(O)C(Br)(Br)P(=O)(O)O)[C@@H](O)[C@H]1O` [Compound 28, (Dibromo((((((2R,3S,4R,5R)-5-(6-(ethyl(propyl)amino)-9H-purin-9-yl)-3,4-dihydroxytetra-hydrofuran-2-yl)methoxy)-(hydroxy)phosphoryl)oxy)(hydroxy)phosphoryl)methyl)-phosphonic Acid] stands 2.22 ± 0.02 µM.
`O=P(O)(OC[C@H]1O[C@@H](n2cnc3c(NCc4ccccc4)ncnc32)[C@H](O)[C@@H]1O)OP(=O)(O)C(Br)(Br)P(=O)(O)O` [Compound 29, (((((((2R,3S,4R,5R)-5-(6-(Benzylamino)-9H-purin-9-yl)-3,4-dihydroxytetrahydrofuran-2-yl)methoxy)(hydroxy)-phosphoryl)oxy)(hydroxy)phosphoryl)dibromomethyl)-phosphonic Acid]: the “CD39 inhibition (in words)” value is on record as “abolishment of the CD39-inhibiting activity”. For the same compound, the inhibition constant (Ki) under setting [1] is more than 10 µM. Moreover, the inhibition at 10 µM under setting [3] turned out to be 4%.
On to `O=P(O)(OC[C@H]1O[C@@H](n2cnc3c(NCCc4ccccc4)ncnc32)[C@H](O)[C@@H]1O)OP(=O)(O)C(Br)(Br)P(=O)(O)O` [Compound 30, (Dibromo((((((2R,3S,4R,5R)-3,4-dihydroxy-5-(6-(phenethylamino)-9H-purin-9-yl)tetrahydrofuran-2-yl)-methoxy)(hydroxy)phosphoryl)oxy)(hydroxy)phosphoryl)-methyl)phosphonic Acid], for which the inhibition constant Ki under setting [1] is 4.82 ± 0.21 µM.
Still for that read-out and setting: under `CNc1ncnc2c1nc(NC1CC1)n2[C@@H]1O[C@H](COP(=O)(O)OP(=O)(O)C(Br)(Br)P(=O)(O)O)[C@@H](O)[C@H]1O` [Compound 32, (Dibromo((((((2R,3S,4R,5R)-5-(8-(cyclopropylamino)-6-(methylamino)-9H-purin-9-yl)-3,4-di-hydroxytetrahydrofuran-2-yl)methoxy)(hydroxy)-phosphoryl)oxy)(hydroxy)phosphoryl)methyl)phosphonic-Acid] stands 5.72 ± 0.86 µM.
`CCCCNc1nc2c(N(C)C)ncnc2n1[C@@H]1O[C@H](COP(=O)(O)OP(=O)(O)C(Br)(Br)P(=O)(O)O)[C@@H](O)[C@H]1O` [Compound 34, (Dibromo((((((2R,3S,4R,5R)-5-(8-(butylamino)-6-(dimethylamino)-9H-purin-9-yl)-3,4-di-hydroxytetrahydrofuran-2-yl)methoxy)(hydroxy)-phosphoryl)oxy)(hydroxy)phosphoryl)methyl)-phosphonic Acid]: the inhibition constant (Ki) under setting [1] was approximately 10 µM. Besides, the inhibition at 10 µM under setting [3] came out at 54%.
As to `CCN(CC)c1ncnc2c1nc(NC)n2[C@@H]1O[C@H](COP(=O)(O)OP(=O)(O)C(Br)(Br)P(=O)(O)O)[C@@H](O)[C@H]1O` [Compound 35, (Dibromo((((((2R,3S,4R,5R)-5-(6-(diethylamino)-8-(methylamino)-9H-purin-9-yl)-3,4-di-hydroxytetrahydrofuran-2-yl)methoxy)(hydroxy)phosphoryl)-oxy)(hydroxy)phosphoryl)methyl)phosphonic Acid], the Ki under setting [1] is approximately 10 µM. Besides, the inhibition at 10 µM under setting [3] worked out at 59%.
With `CCCCSc1nc2c(NC)ncnc2n1[C@@H]1O[C@H](COP(=O)(O)OP(=O)(O)C(Br)(Br)P(=O)(O)O)[C@@H](O)[C@H]1O` [Compound 36, (Dibromo((((((2R,3S,4R,5R)-5-(8-(butylthio)-6-(methylamino)-9H-purin-9-yl)-3,4-dihydroxy-tetrahydrofuran-2-yl)methoxy)(hydroxy)phosphoryl)oxy)-(hydroxy)phosphoryl)methyl)phosphonic Acid], the inhibitory constant (Ki) under setting [1] is more than 10 µM. The inhibition at 10 µM under setting [3] stood at 39%.
As for `Nc1ncnc2c1ncn2[C@@H]1O[C@H](COP(=O)(O)OP(=O)(O)C(Br)(Br)P(=O)(O)O)[C@@H](O)[C@H]1O` [Compound 38, (((((((2R,3S,4R,5R)-5-(6-amino-9H-purin-9-yl)-3,4-dihydroxytetrahydrofuran-2-yl)methoxy)-(hydroxy)-phosphoryl)oxy)(hydroxy)phosphoryl)dibromomethyl)-phosphonic Acid], the “IC50 (in words)” value is reported as “low micromolar range”. Also, the inhibition constant Ki under setting [1] amounted to 5.26 ± 0.22 µM. Under setting [2], the “fold decrease in CD39 potency” value is on record as “about 5 fold”.
`Nc1ncnc2c1ncn2[C@@H]1O[C@H](COP(=O)(O)OP(=O)(O)C(Cl)(Cl)P(=O)(O)O)[C@@H](O)[C@H]1O` [Compound 39, (((((((2R,3S,4R,5R)-5-(6-Amino-9H-purin-9-yl)-3,4-dihydroxytetrahydrofuran-2-yl)methoxy)-(hydroxy)-phosphoryl)oxy)(hydroxy)phosphoryl)dichloromethyl)-phosphonic Acid]: the “IC50 (in words)” value is listed as “low micromolar range”. For the same compound, under setting [1], the Ki is 9.53 ± 1.46 µM. Besides, the “fold less potent than dibromo-derivative 38 at CD39” value under setting [2] is on record as “about 2 fold”.
Turning to `Nc1ncnc2c1ncn2[C@@H]1O[C@H](COP(=O)(O)CP(=O)(O)O)[C@@H](O)[C@H]1O` [Compound 42, α,β-Methylene-ADP, reference compound], the inhibition at 10 µM turned out to be 14%. Besides, the inhibition constant (Ki) (Ki ± SEM, fluorescent substrate PSB-017621A 0.5 µM) was more than 10 µM.
`Nc1ncnc2c1ncn2[C@@H]1O[C@H](COP(=O)(O)OP(=O)(O)CP(=O)(O)O)[C@@H](O)[C@H]1O` [Compound 43, β,γ-Methylene-ATP, reference compound]: the “CD39 inhibition (in words)” value was “virtually inactive; also recorded: no significant inhibition”. The Ki under setting [1] was more than 10 µM. Besides, the inhibition at 10 µM under setting [3] was 23%.
